Laboratory results from EPA's ToxValDB 9.5 (doi:10.2903/j.efsa.2009.1415).
In brackets after ≈: the same amount, converted by molar mass.

Key:
Anas platyrhynchos = details: short-term; oral; feed; mortality
Apis mellifera = details: acute; duration: 48 hours; dermal; mortality
Cyprinus carpio = details: acute; duration: 96 hours; mortality
Daphnia magna = details: chronic/long-term; duration: 21 days; reproduction
Pimephales promelas = details: chronic/long-term; duration: 35 days; growth
Typhlodromus pyri = assay: LR50; higher = less toxic; details: not reported; mortality

Compound: CCCOCC(=Nc1ccc(Cl)cc1C(F)(F)F)n1ccnc1 [Triflumizole]
- LC50 (Anas platyrhynchos): > 1430 mg/kg-day
- LD50 (Apis mellifera): > 20 µg/piece
- LD50 (Colinus virginianus; acute, oral, mortality): > 2510 mg/kg-day
- NOEC (Colinus virginianus; reproduction developmental): ≥ 97.2 mg/kg-day
- LC50 (Cyprinus carpio): 1.28 µg/mL (≈ 3.7 µM)
- NOEC (Daphnia magna): 0.18 mg/L
- NOEC (Pimephales promelas): 0.044 mg/L
- LD50 (Rattus norvegicus; acute, oral, mortality): 1060 mg/kg-day
- NOAEL (Rattus norvegicus; chronic, duration: 2 years, organ weight): 3.5 mg/kg-day
- NOAEL (Rattus norvegicus; developmental, development): 10 mg/kg-day
- NOAEL (Rattus norvegicus; reproduction developmental, reproduction): 4.8 mg/kg-day
- NOAEL (Rattus norvegicus; subchronic, duration: 90 days, organ weight): 4.1 mg/kg-day
- LR50 (Typhlodromus pyri): 63 g/ha
